This note sets out measurements from US10099998B2, “Compound, and separation method, synthesis method and use thereof” (BEIJING PEKING UNIVERSITY WBL BIOTECH CO., LTD., priority 2015, dated 2018).

This test deals with T1, HMG-CoA reductase (Rattus norvegicus, UniProt P51639).
T1 construct: the male rat liver was removed and rinsed with KESD buffer; from tissue; host or cells: male rat liver microsomes
T1 sequence (P51639 1-887): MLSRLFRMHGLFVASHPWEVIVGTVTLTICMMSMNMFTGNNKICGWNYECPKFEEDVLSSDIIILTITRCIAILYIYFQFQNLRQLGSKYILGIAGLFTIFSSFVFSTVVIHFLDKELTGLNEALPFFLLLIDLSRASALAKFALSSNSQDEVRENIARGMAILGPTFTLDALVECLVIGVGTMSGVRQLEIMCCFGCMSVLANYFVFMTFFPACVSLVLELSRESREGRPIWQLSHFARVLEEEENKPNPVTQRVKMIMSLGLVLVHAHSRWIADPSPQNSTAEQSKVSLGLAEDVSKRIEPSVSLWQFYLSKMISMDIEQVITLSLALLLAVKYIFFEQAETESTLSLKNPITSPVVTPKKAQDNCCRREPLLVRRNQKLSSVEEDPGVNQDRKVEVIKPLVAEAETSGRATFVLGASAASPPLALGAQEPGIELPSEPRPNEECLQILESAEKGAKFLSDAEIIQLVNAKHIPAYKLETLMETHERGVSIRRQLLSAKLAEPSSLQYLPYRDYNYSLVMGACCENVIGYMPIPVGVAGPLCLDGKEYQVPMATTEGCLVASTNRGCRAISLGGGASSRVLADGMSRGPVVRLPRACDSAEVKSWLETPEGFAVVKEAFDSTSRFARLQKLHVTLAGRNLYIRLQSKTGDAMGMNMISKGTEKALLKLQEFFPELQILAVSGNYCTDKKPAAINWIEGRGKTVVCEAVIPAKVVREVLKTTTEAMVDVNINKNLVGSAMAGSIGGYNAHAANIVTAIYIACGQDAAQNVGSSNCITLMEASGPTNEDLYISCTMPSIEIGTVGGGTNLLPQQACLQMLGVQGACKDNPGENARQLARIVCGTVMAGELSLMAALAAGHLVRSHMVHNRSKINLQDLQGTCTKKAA
The experiment in a line: Assay on HMG-CoA reductase-inhibiting activity (decreasing rate of OD340). The following applies: for Inhibition rate (%): rat liver microsomes, 37° C., pH 6.8; for Slope (decreasing rate of OD340 within 5 min): blank control slope 13.5. It counts as biochemical. The protocol:
Rat liver microsomes (HMG-CoA reductase) were commercially purchased, or were prepared by reference to the following method: the male rat liver was removed and rinsed with KESD buffer, and then centrifuged at 12,000 g for 15 min. The supernatant was taken. After centrifugation at 105,000 g for 90 min twice, the centrifuged pellets resulted from centrifugation were collected. To the centrifuged pellets, 8.3% glycerol was added, and the resultant mixture was heated in a 37° C. warm bath for 1 h. The crude product of the rat liver microsomes was purified with saturated ammonium sulfate, and the 35-50% purified fraction was collected. The rat liver microsomes obtained were stored in −80° C. refrigerator.
Compound 5 was dissolved in 75% ethanol solution, at an initial concentration of 8.6 mg/ml, and was subjected to stepwise dilution to obtain 4.3 mg/ml, 2.15 mg/ml. The total volume of the test system was 250 μl, and the concentrations of various ingredients were as follows: 200 mM potassium chloride, 160 mM potassium dihydrogen phosphate, 4 mM ethylenediamine tetra acetic acid, 10 mM dithiothreitol, and the concentrations for the two substrates […] and 3-hydroxy-3-methylglutaryl-coenzyme A were 200 μM and 50 μM, pH 6.8, respectively, wherein 30 μl was added for enzyme, 5 μl was added for the test group, and 5 μl (solvent for dissolving the sample) was added for the control group. The dynamic change in OD340 was determined at 37° C. by Versamax ELISA Microplate Reader. The decreasing rate of OD340 (represented by slope) was measured within 5 min, to evaluate the HMG-CoA reductase activity, and to further evaluate the enzyme-inhibiting activity.
Background: Microsomes from liver hold many membrane-bound enzymes, among them those of drug oxidation.

In the case of `COC(=O)CC(O)CC(O)CCC1c2ccc(C)cc2C=CC1C` (stereo not drawn) [Compound 5, methyl 7-(2,6-dimethyl-1,2-dihydronaphthalen-1-yl)-3,5-dihydroxyheptanoate], where the note is “43-172 μg/ml, dose-response relationship”, the “HMG-CoA reductase inhibition, result in words” value is “inhibited the HMG-CoA reductase activity, and exhibited a dose-response relationship”. Further, the “Inhibition rate (%)” value runs as follows: (final concentration 43 μg/ml (inhibitor 2.15 mg/ml, 5 μl)) 19.2%; (final concentration 86 μg/ml (inhibitor 4.3 mg/ml, 5 μl)) 33.3%; (final concentration 172 μg/ml (inhibitor 8.6 mg/ml, 5 μl)) 42.2%. Further, the “Slope (decreasing rate of OD340 within 5 min)” value is, setting by setting: (final concentration 43 μg/ml) 10.9; (final concentration 86 μg/ml) 9.0; (final concentration 172 μg/ml) 7.8.

For the molecule `CC[C@H](C)C(=O)O[C@H]1C[C@@H](C)C=C2C=C[C@H](C)[C@H](CC[C@@H]3C[C@@H](O)CC(=O)O3)[C@H]21` [lovastatin, reference compound], the “Inhibition rate (%)” value (final concentration 80 μg/ml (inhibitor 4.0 mg/ml, 5 μl)) is 39.2%. Also, the “Slope (decreasing rate of OD340 within 5 min)” value (final concentration 80 μg/ml) is 8.2.
